ChEMBL document CHEMBL1148600, “Synthesis and in vivo validation of [O-methyl-11C]2-{4-[4-(7-methoxynaphthalen-1-yl)piperazin- 1-yl]butyl}-4-methyl-2H-[1,2,4]triazine-3,5-dione: a novel 5-HT1A receptor agonist positron emission tomography ligand” (J Med Chem, 2006)

Key:
Vasopressin V1 receptor = Vasopressin V1 receptor (Homo sapiens, UniProt P37288+P47901); assay: Binding affinity to vasopressin 1 receptor; format: protein assay
[1] = biological target: Muscarinic acetylcholine receptor; assay: Binding affinity to muscarinic receptor; format: protein assay
[2] = biological target: Kappa-type opioid receptor (Homo sapiens, UniProt P41145); assay: Binding affinity to kappa opioid receptor
Cannabinoid receptor 1 = Cannabinoid receptor 1 (Homo sapiens, UniProt P21554); assay: Binding affinity to CB1 receptor
[3] = biological target: Tumor necrosis factor receptor superfamily member 16 (Homo sapiens, UniProt P08138); assay: Binding affinity to neurotrophin receptor
[4] = biological target: Glutamate [NMDA] receptor; assay: Binding affinity to NMDA receptor; format: protein-complex assay
[5] = biological target: Sodium-dependent dopamine transporter (Homo sapiens, UniProt Q01959); assay: Binding affinity to DAT
Mu-type opioid receptor = Mu-type opioid receptor (Homo sapiens, UniProt P35372); assay: Binding affinity to mu opioid receptor
[6] = biological target: 5-hydroxytryptamine receptor 7 (Homo sapiens, UniProt P34969); assay: Binding affinity to human 5HT7 receptor
[7] = biological target: Alpha-2A adrenergic receptor (Homo sapiens, UniProt P08913); assay: Binding affinity to adrenergic alpha-2A receptor
D(1B) dopamine receptor = D(1B) dopamine receptor (Homo sapiens, UniProt P21918); assay: Binding affinity to dopamine D5 receptor
[8] = biological target: Serotonin 3 (5-HT3) receptor; assay: Binding affinity to human 5HT3 receptor; format: protein-complex assay
Sigma 2 receptor = assay: Binding affinity to sigma2 receptor
Cannabinoid receptor 2 = Cannabinoid receptor 2 (Homo sapiens, UniProt P34972); assay: Binding affinity to CB2 receptor
[9] = biological target: Alpha-2C adrenergic receptor (Homo sapiens, UniProt P18825); assay: Binding affinity to adrenergic alpha-2C receptor
[10] = biological target: T1, 5-hydroxytryptamine receptor 1A (Homo sapiens, UniProt P08908); assay: Displacement of [3H]8-OH-DPAT from human 5HT1A receptor expressed in CHO cells; format: cell-based
T1 sequence (P08908 whole entry): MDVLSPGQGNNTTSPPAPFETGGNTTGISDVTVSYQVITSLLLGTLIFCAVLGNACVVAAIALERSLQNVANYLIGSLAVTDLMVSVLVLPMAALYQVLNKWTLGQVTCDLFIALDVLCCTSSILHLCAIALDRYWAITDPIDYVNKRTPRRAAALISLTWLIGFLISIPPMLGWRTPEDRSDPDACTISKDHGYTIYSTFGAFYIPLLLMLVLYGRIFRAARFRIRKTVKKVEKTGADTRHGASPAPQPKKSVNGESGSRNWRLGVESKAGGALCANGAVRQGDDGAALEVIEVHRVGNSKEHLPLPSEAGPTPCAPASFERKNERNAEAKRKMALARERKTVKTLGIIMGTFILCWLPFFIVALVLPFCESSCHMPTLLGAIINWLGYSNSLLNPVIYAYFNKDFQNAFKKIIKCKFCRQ

Histamine H2 receptor = Histamine H2 receptor (Homo sapiens, UniProt P25021); assay: Binding affinity to histamine H2 receptor
D(2) dopamine receptor = D(2) dopamine receptor (Homo sapiens, UniProt P14416); assay: Binding affinity to dopamine D2 receptor
[11] = biological target: Adrenergic receptor alpha-1 (Homo sapiens, UniProt P35348+P25100+P35368); assay: Binding affinity to adrenergic alpha-1 receptor; format: protein assay
Vasopressin V2 receptor = Vasopressin V2 receptor (Homo sapiens, UniProt P30518); assay: Binding affinity to vasopressin 2 receptor
[12] = biological target: Sigma non-opioid intracellular receptor 1 (Homo sapiens, UniProt Q99720); assay: Binding affinity to sigma1 receptor
[13] = biological target: Beta-3 adrenergic receptor (Homo sapiens, UniProt P13945); assay: Binding affinity to adrenergic beta-3 receptor
[14] = Binding affinity to GABA receptor
D(3) dopamine receptor = D(3) dopamine receptor (Homo sapiens, UniProt P35462); assay: Binding affinity to dopamine D3 receptor
[15] = Binding affinity to sodium channel
Adenosine receptor A2a = Adenosine receptor A2a (Homo sapiens, UniProt P29274); assay: Binding affinity to adenosine […] receptor
Adenosine receptor A3 = Adenosine receptor A3 (Homo sapiens, UniProt P0DMS8); assay: Binding affinity to adenosine A3 receptor
[16] = biological target: Synaptic vesicular amine transporter (Homo sapiens, UniProt Q05940); assay: Binding affinity to VMAT2
[17] = Binding affinity to mGluR
[18] = Binding affinity to prostanoid receptor
[19] = biological target: Sodium-dependent serotonin transporter (Homo sapiens, UniProt P31645); assay: Binding affinity to SERT
[20] = Binding affinity to NK receptor
[21] = biological target: ATP-dependent translocase ABCB1 (Homo sapiens, UniProt P08183); assay: Binding affinity to MDR1
D(1A) dopamine receptor = D(1A) dopamine receptor (Homo sapiens, UniProt P21728); assay: Binding affinity to dopamine D1 receptor
[22] = biological target: 5-hydroxytryptamine receptor 6 (Homo sapiens, UniProt P50406); assay: Binding affinity to human 5HT6 receptor
Histamine H4 receptor = Histamine H4 receptor (Homo sapiens, UniProt Q9H3N8); assay: Binding affinity to histamine H4 receptor
Adenosine A2 receptor = Adenosine A2 receptor (Homo sapiens, UniProt P29275+P29274); assay: Binding affinity to adenosine A2 receptor; format: protein assay
[23] = biological target: Beta-1 adrenergic receptor (Homo sapiens, UniProt P08588); assay: Binding affinity to adrenergic beta-1 receptor
[24] = biological target: 5-hydroxytryptamine receptor 2C (Homo sapiens, UniProt P28335); assay: Binding affinity to human 5HT2C receptor
[25] = biological target: Voltage-gated inwardly rectifying potassium channel KCNH2 (Homo sapiens, UniProt Q12809); assay: Binding affinity to hERG
[26] = biological target: Glutamate receptor ionotropic AMPA (Homo sapiens, UniProt P42261+P42262+P42263+P48058); assay: Binding affinity to AMPA receptor; format: protein-complex assay
[27] = biological target: 5-hydroxytryptamine receptor 2A (Homo sapiens, UniProt P28223); assay: Binding affinity to human 5HT2A receptor
D(4) dopamine receptor = D(4) dopamine receptor (Homo sapiens, UniProt P21917); assay: Binding affinity to dopamine D4 receptor
[28] = biological target: 5-hydroxytryptamine receptor 5A (Homo sapiens, UniProt P47898); assay: Binding affinity to human 5HT5A receptor
[29] = biological target: T1, 5-hydroxytryptamine receptor 1A; assay: Agonistic activity at human 5HT1A in CHO cells by the inhibition of forskolin-stimulated cAMP accumulation; format: functional, cell-based
Histamine H1 receptor = Histamine H1 receptor (Homo sapiens, UniProt P35367); assay: Binding affinity to histamine H1 receptor
Histamine H3 receptor = Histamine H3 receptor (Homo sapiens, UniProt Q9Y5N1); assay: Binding affinity to histamine H3 receptor
[30] = biological target: Chromaffin granule amine transporter (Homo sapiens, UniProt P54219); assay: Binding affinity to VMAT1
[31] = biological target: Alpha-2B adrenergic receptor (Homo sapiens, UniProt P18089); assay: Binding affinity to adrenergic alpha-2B receptor
[32] = biological target: Beta-2 adrenergic receptor (Homo sapiens, UniProt P07550)
[33] = Binding affinity to calcium channel
[34] = biological target: Delta-type opioid receptor (Homo sapiens, UniProt P41143); assay: Binding affinity to Delta opioid receptor
[35] = biological target: T1, 5-hydroxytryptamine receptor 1A; assay: Agonistic activity at human 5HT1A receptor by [35S]GTP-gamma-S binding; format: functional
[36] = biological target: Sodium-dependent noradrenaline transporter (Homo sapiens, UniProt P23975); assay: Binding affinity to NET
[37] = Binding affinity to imidazoline receptor

Sequence of Histamine H1 receptor (P35367 whole entry): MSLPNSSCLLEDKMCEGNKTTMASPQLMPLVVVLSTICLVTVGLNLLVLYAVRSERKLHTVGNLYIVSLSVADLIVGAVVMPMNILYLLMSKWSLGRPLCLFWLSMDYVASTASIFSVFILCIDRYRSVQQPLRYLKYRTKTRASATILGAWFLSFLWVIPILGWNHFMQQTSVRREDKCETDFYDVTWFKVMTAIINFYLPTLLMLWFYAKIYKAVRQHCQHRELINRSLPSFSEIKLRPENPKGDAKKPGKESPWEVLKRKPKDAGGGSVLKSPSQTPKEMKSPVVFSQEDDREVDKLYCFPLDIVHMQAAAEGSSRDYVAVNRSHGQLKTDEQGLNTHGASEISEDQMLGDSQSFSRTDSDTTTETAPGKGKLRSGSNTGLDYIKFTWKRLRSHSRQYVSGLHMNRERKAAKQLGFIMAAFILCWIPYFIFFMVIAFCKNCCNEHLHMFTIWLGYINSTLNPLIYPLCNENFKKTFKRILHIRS
Sequence of Adenosine receptor A2a (P29274 whole entry): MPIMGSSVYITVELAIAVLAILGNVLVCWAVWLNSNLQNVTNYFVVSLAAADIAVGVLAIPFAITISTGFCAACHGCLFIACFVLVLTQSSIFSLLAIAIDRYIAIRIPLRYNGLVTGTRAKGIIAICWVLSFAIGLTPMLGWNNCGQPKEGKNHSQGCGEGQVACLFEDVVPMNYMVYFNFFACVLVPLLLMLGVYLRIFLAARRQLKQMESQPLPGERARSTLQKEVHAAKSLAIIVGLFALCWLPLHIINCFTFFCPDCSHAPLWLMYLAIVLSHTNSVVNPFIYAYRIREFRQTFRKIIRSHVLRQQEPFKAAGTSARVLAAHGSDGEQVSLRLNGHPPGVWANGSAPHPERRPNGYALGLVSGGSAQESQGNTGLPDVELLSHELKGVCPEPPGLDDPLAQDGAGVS
Sequence of Sigma non-opioid intracellular receptor 1 (Q99720 whole entry): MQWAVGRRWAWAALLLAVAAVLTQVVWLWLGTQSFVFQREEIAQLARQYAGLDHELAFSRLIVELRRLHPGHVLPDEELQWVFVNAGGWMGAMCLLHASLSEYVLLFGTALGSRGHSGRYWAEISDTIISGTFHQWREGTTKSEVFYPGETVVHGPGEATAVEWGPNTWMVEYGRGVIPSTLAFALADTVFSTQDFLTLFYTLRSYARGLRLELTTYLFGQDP
Sequence of 5-hydroxytryptamine receptor 7 (P34969 whole entry): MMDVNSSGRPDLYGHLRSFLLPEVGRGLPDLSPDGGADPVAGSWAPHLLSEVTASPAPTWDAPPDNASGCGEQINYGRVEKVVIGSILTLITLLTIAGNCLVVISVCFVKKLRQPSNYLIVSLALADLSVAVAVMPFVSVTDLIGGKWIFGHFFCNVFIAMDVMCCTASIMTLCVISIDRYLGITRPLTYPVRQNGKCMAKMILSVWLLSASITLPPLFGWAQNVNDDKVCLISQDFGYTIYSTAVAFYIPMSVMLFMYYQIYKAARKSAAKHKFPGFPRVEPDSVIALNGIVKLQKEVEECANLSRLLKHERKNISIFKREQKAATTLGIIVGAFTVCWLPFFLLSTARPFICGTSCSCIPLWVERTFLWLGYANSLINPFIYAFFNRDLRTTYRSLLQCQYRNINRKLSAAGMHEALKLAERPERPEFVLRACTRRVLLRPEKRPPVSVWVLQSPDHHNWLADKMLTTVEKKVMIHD
Sequence of 5-hydroxytryptamine receptor 5A (P47898 whole entry): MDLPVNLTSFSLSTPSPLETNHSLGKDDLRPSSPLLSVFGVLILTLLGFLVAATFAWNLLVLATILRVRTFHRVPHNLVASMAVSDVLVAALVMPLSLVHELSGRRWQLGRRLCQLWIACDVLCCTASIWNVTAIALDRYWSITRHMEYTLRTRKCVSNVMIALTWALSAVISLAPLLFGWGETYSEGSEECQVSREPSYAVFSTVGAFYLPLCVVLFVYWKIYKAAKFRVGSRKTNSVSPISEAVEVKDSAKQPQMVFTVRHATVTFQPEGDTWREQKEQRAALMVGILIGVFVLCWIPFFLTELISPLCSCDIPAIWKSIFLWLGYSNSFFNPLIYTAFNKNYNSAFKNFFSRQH
Sequence of D(4) dopamine receptor (P21917 whole entry): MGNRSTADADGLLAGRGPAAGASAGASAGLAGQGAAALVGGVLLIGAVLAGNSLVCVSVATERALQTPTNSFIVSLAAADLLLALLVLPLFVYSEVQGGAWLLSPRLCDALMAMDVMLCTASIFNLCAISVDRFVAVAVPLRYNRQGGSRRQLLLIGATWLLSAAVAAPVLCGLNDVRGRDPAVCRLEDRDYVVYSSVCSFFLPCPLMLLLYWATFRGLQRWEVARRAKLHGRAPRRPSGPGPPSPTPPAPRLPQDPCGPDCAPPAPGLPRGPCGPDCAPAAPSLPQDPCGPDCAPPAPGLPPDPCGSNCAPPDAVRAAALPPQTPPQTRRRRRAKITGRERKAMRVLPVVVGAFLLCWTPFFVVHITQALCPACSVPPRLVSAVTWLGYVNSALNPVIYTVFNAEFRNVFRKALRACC
Sequence of Vasopressin V2 receptor (P30518 whole entry): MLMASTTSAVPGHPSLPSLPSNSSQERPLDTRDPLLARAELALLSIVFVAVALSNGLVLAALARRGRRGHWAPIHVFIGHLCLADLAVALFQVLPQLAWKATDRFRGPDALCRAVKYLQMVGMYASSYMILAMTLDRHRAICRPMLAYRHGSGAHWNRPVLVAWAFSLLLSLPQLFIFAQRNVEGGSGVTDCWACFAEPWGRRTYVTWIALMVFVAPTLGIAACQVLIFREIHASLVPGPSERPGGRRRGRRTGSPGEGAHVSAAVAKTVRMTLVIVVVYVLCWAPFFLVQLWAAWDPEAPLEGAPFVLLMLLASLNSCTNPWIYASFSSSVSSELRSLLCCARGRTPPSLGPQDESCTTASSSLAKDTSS
Sequence of Cannabinoid receptor 2 (P34972 whole entry): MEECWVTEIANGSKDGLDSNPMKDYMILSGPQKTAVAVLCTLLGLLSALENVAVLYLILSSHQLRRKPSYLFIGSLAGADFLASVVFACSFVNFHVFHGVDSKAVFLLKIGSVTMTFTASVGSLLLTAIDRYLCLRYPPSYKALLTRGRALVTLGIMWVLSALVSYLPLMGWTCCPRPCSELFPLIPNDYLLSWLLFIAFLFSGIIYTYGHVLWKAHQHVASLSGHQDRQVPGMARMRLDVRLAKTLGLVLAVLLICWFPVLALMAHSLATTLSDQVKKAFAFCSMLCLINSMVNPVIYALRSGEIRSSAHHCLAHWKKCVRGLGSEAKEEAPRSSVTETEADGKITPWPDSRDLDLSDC
Sequence of ATP-dependent translocase ABCB1 (P08183 whole entry): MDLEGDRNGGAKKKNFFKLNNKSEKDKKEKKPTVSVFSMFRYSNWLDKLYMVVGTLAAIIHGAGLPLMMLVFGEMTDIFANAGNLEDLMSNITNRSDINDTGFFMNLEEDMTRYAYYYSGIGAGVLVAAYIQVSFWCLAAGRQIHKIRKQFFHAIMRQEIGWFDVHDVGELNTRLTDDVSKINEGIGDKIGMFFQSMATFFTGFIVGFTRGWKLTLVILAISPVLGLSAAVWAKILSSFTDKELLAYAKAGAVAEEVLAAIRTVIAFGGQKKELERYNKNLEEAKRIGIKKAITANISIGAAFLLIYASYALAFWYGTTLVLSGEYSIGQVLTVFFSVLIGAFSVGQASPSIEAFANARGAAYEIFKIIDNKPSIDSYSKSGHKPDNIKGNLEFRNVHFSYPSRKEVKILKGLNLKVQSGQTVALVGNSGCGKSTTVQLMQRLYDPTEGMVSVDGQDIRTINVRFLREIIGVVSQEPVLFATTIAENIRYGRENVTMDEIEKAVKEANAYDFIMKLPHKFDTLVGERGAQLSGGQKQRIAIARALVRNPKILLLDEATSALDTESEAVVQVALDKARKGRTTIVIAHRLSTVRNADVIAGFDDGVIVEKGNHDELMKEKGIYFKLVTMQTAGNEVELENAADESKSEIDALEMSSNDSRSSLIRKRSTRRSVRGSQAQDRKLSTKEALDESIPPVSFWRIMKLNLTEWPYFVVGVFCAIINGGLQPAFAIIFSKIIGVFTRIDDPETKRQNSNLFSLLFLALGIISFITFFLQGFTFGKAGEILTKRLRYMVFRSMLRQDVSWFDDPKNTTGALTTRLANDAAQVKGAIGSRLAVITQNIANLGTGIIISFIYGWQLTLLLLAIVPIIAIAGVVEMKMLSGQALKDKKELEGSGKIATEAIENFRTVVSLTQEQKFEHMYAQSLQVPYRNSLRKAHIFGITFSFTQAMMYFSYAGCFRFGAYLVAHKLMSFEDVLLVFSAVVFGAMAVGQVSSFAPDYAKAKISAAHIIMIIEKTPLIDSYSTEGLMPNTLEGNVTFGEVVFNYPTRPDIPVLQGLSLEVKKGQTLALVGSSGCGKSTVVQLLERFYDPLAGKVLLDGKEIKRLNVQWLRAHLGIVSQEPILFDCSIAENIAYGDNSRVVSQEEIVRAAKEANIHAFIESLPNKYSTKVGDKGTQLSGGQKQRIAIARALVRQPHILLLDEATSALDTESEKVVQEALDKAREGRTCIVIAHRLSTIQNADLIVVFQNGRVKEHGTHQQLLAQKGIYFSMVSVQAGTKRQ
Sequence of Histamine H2 receptor (P25021 whole entry): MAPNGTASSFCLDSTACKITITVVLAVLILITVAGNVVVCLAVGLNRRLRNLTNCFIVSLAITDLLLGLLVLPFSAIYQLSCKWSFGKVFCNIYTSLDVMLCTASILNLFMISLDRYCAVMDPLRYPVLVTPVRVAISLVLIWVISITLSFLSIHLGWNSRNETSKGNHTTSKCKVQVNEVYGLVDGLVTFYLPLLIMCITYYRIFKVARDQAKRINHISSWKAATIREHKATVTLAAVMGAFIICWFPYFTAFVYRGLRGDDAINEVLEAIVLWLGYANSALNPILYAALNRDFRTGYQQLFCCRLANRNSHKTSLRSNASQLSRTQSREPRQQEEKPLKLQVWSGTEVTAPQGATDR

Cn1c(=O)cnn(CCCCN2CCN(c3cccc4ccc(O[11CH3])cc34)CC2)c1=O
Ki (Vasopressin V1 receptor): > 10000 nM
Ki [1]: > 10000 nM
Ki [2]: > 10000 nM
Ki (Cannabinoid receptor 1): > 10000 nM
Ki [3]: > 10000 nM
Ki [4]: > 10000 nM
Ki [5]: 407 nM
Ki (Mu-type opioid receptor): > 10000 nM
Ki [6]: 9.1 nM
Ki [7]: 1010 nM
Ki (D(1B) dopamine receptor): > 10000 nM
Ki [8]: > 10000 nM
Ki (Sigma 2 receptor): > 10000 nM
Ki (Cannabinoid receptor 2): > 10000 nM
Ki [9]: 23.7 nM
Ki [10]: 1.36 nM
Ki (Histamine H2 receptor): 302 nM
Ki (D(2) dopamine receptor): 22 nM
Ki [11]: 32.2 nM
Ki (Vasopressin V2 receptor): > 10000 nM
Ki [12]: 480 nM
Ki [13]: > 10000 nM
Ki [14]: > 10000 nM
Ki (D(3) dopamine receptor): 62.8 nM
Ki [15]: > 10000 nM
Ki (Adenosine receptor A2a): > 10000 nM
Ki (Adenosine receptor A3): > 10000 nM
Ki [16]: > 10000 nM
Ki [17]: > 10000 nM
Ki [18]: > 10000 nM
Ki [19]: 6140 nM
Ki [20]: > 10000 nM
Ki [21]: > 10000 nM
Ki (D(1A) dopamine receptor): 7400 nM
Ki [22]: 120 nM
Ki (Histamine H4 receptor): > 10000 nM
Ki (Adenosine A2 receptor): > 10000 nM
Ki [23]: 476 nM
Ki [24]: 99.6 nM
Ki [25]: > 10000 nM
Ki [26]: > 10000 nM
Ki [27]: 41.5 nM
Ki (D(4) dopamine receptor): 8.5 nM
Ki [28]: 229 nM
EC50 [29]: 0.01 nM
Ki (Histamine H1 receptor): 150 nM
Ki (Histamine H3 receptor): > 10000 nM
Ki [30]: > 10000 nM
Ki [31]: 316 nM
Ki [32]: 60.6 nM
Ki [33]: > 10000 nM
Ki [34]: > 10000 nM
EC50 [35]: 0.05 nM
Ki [36]: 6980 nM
Ki [37]: > 10000 nM
